Among the data in ChEMBL document CHEMBL2062393, “Drugs for stroke: action of nitrone (Z)-N-(2-bromo-5-hydroxy-4-methoxybenzylidene)-2-methylpropan-2-amine oxide on rat cortical neurons in culture subjected to oxygen-glucose-deprivation” (Eur J Med Chem, 2012) are Activity values, retold here.

Assay type in all cases: functional
In test [1] the test system is Cortical neurone. Nature of the test: Neuroprotective activity against Wistar rat Cortical neurons assessed as reduction of oxygen-glucose-deprivation-induced lipid peroxidation at 1 uM treated during reperfusion measured after 24 hrs by TBARS method.
For test [2], the system named is Cortical neurone. Nature of the test: Neuroprotective activity against Wistar rat Cortical neurons assessed as reduction of oxygen-glucose-deprivation-induced mitochondrial membrane potential at 1 to 100 uM treated during reperfusion measured after 24 hrs by spectrofluorometer analysis.
Test [3] concerns Cortical neurone. Put plainly: Neuroprotective activity against Wistar rat Cortical neurons assessed as reduction of oxygen-glucose-deprivation-induced ROS production at 1 uM treated during reperfusion measured after 24 hrs by H2DCF-DA assay.
Test [4] concerns Cortical neurone. Put plainly: Neuroprotective activity against Wistar rat Cortical neurons assessed as reduction of oxygen-glucose-deprivation-induced cell death at 100 uM treated during reperfusion measured after 24 hrs by XTT assay. In general terms: Tetrazolium dyes change colour on reduction, which living cells bring about.
For test [5], the system named is Cortical neurone. Put plainly: Neuroprotective activity against Wistar rat Cortical neurons assessed as reduction of oxygen-glucose-deprivation-induced caspase-3 activity at 1 to 100 uM treated during reperfusion measured after 24 hrs by spectrofluorometer analysis.
Test [6] concerns Cortical neurone. Put plainly: Neuroprotective activity against Wistar rat Cortical neurons assessed as reduction of oxygen-glucose-deprivation-induced lipid peroxidation at 100 uM treated during reperfusion measured after 24 hrs by TBARS method.
Test [7] has as its system Cortical neurone. Put plainly: Neuroprotective activity against Wistar rat Cortical neurons assessed as reduction of oxygen-glucose-deprivation-induced cell death at 1 to 10 uM treated during reperfusion measured after 24 hrs by XTT assay.
The subject of test [8] is Cortical neurone. Nature of the test: Neuroprotective activity against Wistar rat Cortical neurons assessed as reduction of oxygen-glucose-deprivation-induced LDH release at 1 to 100 uM treated during reperfusion measured after 24 hrs. (In general: LDH in the medium is a marker of cell lysis.)

The source made the active and inactive calls. No cut-off for these calls is given here.

For the compound `COc1cc(Br)c(/C=[N+](\[O-])C(C)(C)C)cc1O`, the outcome with Cortical neurone [1], with Cortical neurone [3], with Cortical neurone [4], in the test with Cortical neurone [5] and in the test with Cortical neurone [8] was Active. Also, the result in the test with Cortical neurone [2], in the test on Cortical neurone [6] and in the test with Cortical neurone [7] was inactive.
